In US20090074815A1, “Immunomodulator Compounds as Vaccine Enhancers” (SCICLONE PHARMACEUTICALS, INC., priority 2005, published 2009):
Like-named read-outs stand apart in the source and are kept apart here.

Experiments:
bone marrow cells = assay: Expression of Thy1 marker by bone marrow cells (flow cytometry) after SCV-07 treatment; format: in vivo, mice
From the text: Materials and Methods: Eighteen (18) to twenty (20) gram (g) male mice, purchased from the Rappolovo Animal Facility, Russia, were used in the studies described below. C57BL/6 (B6) mice were used to evaluate the effect of SCV-07 in non-immunized mice. CBAxC57BL/6 (F1) mice were used for studies of the effects of SCV-07 on the antigen-specific immune response. Mice were kept under the standard animal facility conditions and were provided with a standard diet and water ad libitum. Each treatment group included 4-5 mice. […] A suspension containing filling agents alone, which corresponded to the maximum amount of filling agents in the doses of SCV-07 administered to experimental animals, was used a control. Thigh bones were removed from treated mice under aseptic conditions, and the medullary cavities were […] washed with PBS. Fragments of the bone marrow were minced by passing the tissue through a syringe needle. The resulting cell suspension was filtered through a double gauze layer and washed in PBS. After erythrocytes were lysed, the cells were counted and transferred to flat bottom culture plates. Due to an almost complete lack of spontaneous proliferation, the absolute values of proliferation, which were expressed as counts per minute (CPM), were determined and the Con A-induced proliferation of thymic cells from animals of different groups were compared. Analysis by Flow Cytometry: […] Immunomodulatory Activity of SCV-07 After Oral Administration: Thy1-positive lymphocytes, the precursors of T-cells in the bone marrow, increased in a dose-dependent manner in mice after treatment with SCV-07 per os. These increases were analogous to those observed in mice which received SCV-07 i.p (Table 2).

neutrophils = assay: Concentration and functional activity of neutrophils (phagocytosis, lysosomal activity, spontaneous and induced HCT test) before and after vaccination; format: in vivo, human
[1] = system: IL-2 production by OvA-stimulated splenocytes; assay: OvA-stimulated production of IL-2 by splenocytes of OvA-immunized mice; details: for activity at 0.0001 mg/kg / activity at 0.001 mg/kg / activity at 0.01 mg/kg: Mus musculus, Splenocyte, po; for activity at 0.0001 mg/kg: 0.1 μg/kg per os; for activity at 0.001 mg/kg: 1.0 μg/kg per os; for activity at 0.01 mg/kg: 10.0 μg/kg per os; for Production of IL-2 by splenocytes / Production of IL-2 by splenocytes, % (% of control): OvA/Alum, 0.1 μg/kg i/p
Protocol: The OvA was administered subcutaneously to the crest in a volume of 200 μl. Mice were immunized on day 1 with OvA in complete Freund's adjuvant (CFA; Sigma) and on day 15 with the antigen in incomplete Freund's adjuvant (IFA; Sigma). The immune response was analyzed on day 29. Mice were also immunized with 10 μg/mouse of OvA using Alum as an adjuvant.
Thymuses and spleens from mice of each treatment group were pooled, and then minced with scissors. The minced tissues were suspended in sterile PBS to form cell suspensions, filtered through a double gauze layer and centrifuged. Cells were washed twice with PBS, re-suspended in RPMI-1640 (Sigma) with 2.0 mM of L-glutamine, 50 μM of mercaptoethanol, and 10 μg/ml of gentamycin (complete medium); and cell counts were made. (The splenocyte suspension was washed with a 0.86% solution of NH4Cl to pre-lyse erthrocytes.)
Assessment of Mitogen- and Antigen-Induced Production of Cytokines: Thymic cells (1×10^6/well) in complete medium with 2% FCS were stimulated with ConA (0, 1, and 2 μg/ml). Splenocytes (1×10^6/well) in complete medium with 5% FCS were stimulated with ConA (0, 1, and 5 μg/ml) and with OvA (0-100 μg/ml). […] Supernatants from OvA-stimulated cultures were collected after 72 hours. Supernatants from both cultures were frozen, and kept at 20° C. Concentrations of IL-2, IL-4, IL-10, IL-12R40 and IFNγ in the supernatants were determined by solid-phase EIA with EIA Expansion Kits, available from BD Biosciences (formerly Pharmingen), in accordance with the manufacturer's instructions.

[2] = Group 2 (patients with infectious syndrome, hepatitis B vaccination with SCV-07), after vaccination, n = 16, M ± m
[3] = read-out: Production of IL-2 by splenocytes, % (% of control), OvA/Alum, OvA 0 μg/ml
[4] = read-out: Production of IL-2 by splenocytes, % (% of control), OvA/Alum, OvA 1 μg/ml
[5] = read-out: Production of IL-2 by splenocytes, % (% of control), OvA/Alum, OvA 10 μg/ml
[6] = read-out: Production of IL-2 by splenocytes, % (% of control), OvA/Alum, OvA 25 μg/ml
[7] = read-out: Production of IL-2 by splenocytes, % (% of control), OvA/Alum, OvA 100 μg/ml
[8] = read-out: Production of IL-2 by splenocytes, % (% of control), OvA/FA, OvA 0 μg/ml
[9] = read-out: Production of IL-2 by splenocytes, % (% of control), OvA/FA, OvA 1 μg/ml
[10] = read-out: Production of IL-2 by splenocytes, % (% of control), OvA/FA, OvA 10 μg/ml
[11] = read-out: Production of IL-2 by splenocytes, % (% of control), OvA/FA, OvA 25 μg/ml
[12] = read-out: Production of IL-2 by splenocytes, % (% of control), OvA/FA, OvA 100 μg/ml

Structure (SMILES): N[C@H](CCC(=O)N[C@@H](Cc1c[nH]c2ccccc12)C(=O)O)C(=O)O [SCV-07, γ-D-glutamyl-L-tryptophan]
- Thy-1 positive cells, % (bone marrow cells; 0.1 μg/kg per os): 12.9 ± 1.2%
- Thy-1 positive cells, % (bone marrow cells; 1.0 μg/kg i/p): 15.4 ± 0.1%
- Thy-1 positive cells, % (bone marrow cells; 1.0 μg/kg per os): 14.9 ± 1.3%
- Thy-1 positive cells, % (bone marrow cells; 10.0 μg/kg per os): 16.0 ± 0.7%
- Thy-1 positive cells, % (bone marrow cells; 100.0 μg/kg per os): 16.0 ± 1.2%
- Activity of phagocytosis % (neutrophils; [2]): 46.88 ± 4.92%
- Functional reserve, conv. units (neutrophils; [2]): 1.929 ± 0.225 conv. units
- Induced HCT-test, activity, % (neutrophils; [2]): 48.63 ± 4.62%
- Induced HCT-test, index, conv. units (neutrophils; [2]): 0.732 ± 0.08 conv. units
- Intensity of phagocytosis, conv. units (neutrophils; [2]): 1.44 ± 0.189 conv. units
- Lysosomal activity, conv. units (neutrophils; [2]): 198.7 ± 22.5 conv. units
- Neutrophils % (neutrophils; [2]): 56.56 ± 2.07%
- Neutrophils × 10^9/l (neutrophils; [2]): 3.403 ± 0.27 × 10^9/l
- Phagocytary number, conv. units (neutrophils; [2]): 2.92 ± 0.255 conv. units
- Spontaneous HCT-test, activity, % (neutrophils; [2]): 34.50 ± 5.62%
- Spontaneous HCT-test, index, conv. (neutrophils; [2]): 0.50 ± 0.093 conv.
- spontaneous activity and intensity of neutrophils in the HCT reaction (neutrophils; immunodeficient subjects with SCV-07 versus vaccine only and versus healthy, p<0.05): significantly lower
- activities of neutrophils in the induced HCT test (neutrophils; subjects who received SCV-07 versus vaccinated without immunomodulator, after vaccination, p<0.05): significantly higher
- activity at 0.0001 mg/kg [1, 3]: 100%
- activity at 0.0001 mg/kg [1, 4]: 94.3%
- activity at 0.0001 mg/kg [1, 5]: 72%
- activity at 0.0001 mg/kg [1, 6]: 148%
- activity at 0.0001 mg/kg [1, 7]: 52.5%
- activity at 0.001 mg/kg [1, 3]: 100%
- activity at 0.001 mg/kg [1, 4]: 57.7%
- activity at 0.001 mg/kg [1, 5]: 113%
- activity at 0.001 mg/kg [1, 6]: 75.4%
- activity at 0.001 mg/kg [1, 7]: 74.7%
- activity at 0.01 mg/kg [1, 3]: 100%
- activity at 0.01 mg/kg [1, 4]: 191%
- activity at 0.01 mg/kg [1, 5]: 87.2%
- activity at 0.01 mg/kg [1, 6]: 75.6%
- activity at 0.01 mg/kg [1, 7]: 104%
- activity at 0.0001 mg/kg [1, 8]: 100%
- activity at 0.0001 mg/kg [1, 9]: 32.4%
- activity at 0.0001 mg/kg [1, 10]: 43.9%
- activity at 0.0001 mg/kg [1, 11]: 119%
- activity at 0.0001 mg/kg [1, 12]: 44.8%
- activity at 0.001 mg/kg [1, 8]: 100%
- activity at 0.001 mg/kg [1, 9]: 67.6%
- activity at 0.001 mg/kg [1, 10]: 248%
- activity at 0.001 mg/kg [1, 11]: 125%
- activity at 0.001 mg/kg [1, 12]: 231%
- activity at 0.01 mg/kg [1, 8]: 100%
- activity at 0.01 mg/kg [1, 9]: 49.2%
- activity at 0.01 mg/kg [1, 10]: 187%
- activity at 0.01 mg/kg [1, 11]: 176%
- activity at 0.01 mg/kg [1, 12]: 293%
- Production of IL-2 by splenocytes ([1]; OvA 0 μg/ml): 163.0 pg/mL
- Production of IL-2 by splenocytes ([1]; OvA 1 μg/ml): 190.3 pg/mL
- Production of IL-2 by splenocytes, % (% of control) ([1]; OvA 1 μg/ml): 116.7%
- Production of IL-2 by splenocytes ([1]; OvA 10 μg/ml): 87.5 pg/mL
- Production of IL-2 by splenocytes, % (% of control) ([1]; OvA 10 μg/ml): 53.7%
- Production of IL-2 by splenocytes ([1]; OvA 25 μg/ml): 83.5 pg/mL
- Production of IL-2 by splenocytes, % (% of control) ([1]; OvA 25 μg/ml): 51.2%
- Production of IL-2 by splenocytes ([1]; OvA 100 μg/ml): 84.8 pg/mL
- Production of IL-2 by splenocytes, % (% of control) ([1]; OvA 100 μg/ml): 52.0%
